Results: ChEMBL document CHEMBL3507680, “University of Dundee, Gates Library screen for HepG2 cell viability”

experiment: Human HepG2 cell viability assay in 384 well format; format: toxicity, cell-based; set-up: dose 125 nL, time 70.5 hour; cytotoxicity at 70.5 h: concentration not given beside the values; conditions: HepG2 cells, read-out: Inhibition

Row | SMILES | cytotoxicity at 70.5 h [%]
1 | CCn1cncc1CNC(=O)c1ccc(C2CCCN2C(=O)COC)s1 (centres undefined) | -12
2 | COc1ccc2nc(C3CC3)cc(C(=O)NCc3noc(C)n3)c2c1 | -1.37
3 | O=C1CSC(c2cccs2)c2cnn(C3CCCC3)c2N1 (centres undefined) | -5.69
4 | COCc1csc(NC(=O)N2CCC(Cc3cnn(C)c3)C2)n1 (centres undefined) | -4.37
5 | CCN(Cc1ccncc1)Cc1cn(-c2ccccc2)nn1 | -10.2
6 | COc1cccc(CCC(=O)N2CCCCC2Cn2cccn2)c1 (centres undefined) | -11.2
7 | Cc1nn(C)c(C)c1CCC(=O)NCC1(C(N)=O)CCOCC1 | -17.6
8 | CC(=O)NCCCSC1CCN(c2ccccc2F)C1=O (centres undefined) | -11.5
9 | CNC(=O)C1(N2CCC[C@H]2C(=O)NC2CCOCC2)CCOCC1 | -6.78
10 | CC(C)n1cnnc1C1CCCN(S(=O)(=O)c2c[nH]cn2)C1 (centres undefined) | -78.9
11 | Cc1cccc(C(=O)N2CC(C(=O)NCC3CC3)C3(CCOCC3)C2)n1 (centres undefined) | -2.96
12 | CCn1c(C(=O)N2CCN(C(=O)COC)CC2)cc2ccccc21 | 26.3
13 | O=C(CCc1ccccc1Br)NS(=O)(=O)c1ccc2c(c1)OCCO2 | -1.54
14 | CCC(C)Oc1cc(C(=O)Nc2nc(C)ns2)ccn1 (centres undefined) | -0.392
15 | CN(C)C(=O)CN1CCCCC1c1nc(N)ncc1-c1cccc(F)c1 (centres undefined) | 34.4
16 | CN(C)CCOCc1nnc2n1CCN(Cc1ccco1)C2 | -1.46
17 | O=C1CCCN1CCN1CCCCC1Cn1cccn1 (centres undefined) | -10.6
18 | O=C(NCC1CCCN1CCc1ccccc1)NCC1(O)CCC1 (centres undefined) | -9.32
19 | COCc1nc2ncc3c(=O)n(-c4cccc(OC)c4)ccc3n2n1 | 27.8
20 | COc1ccc(COCC(=O)N2CCN(CC(C)(C)O)CC2)cc1 | -0.338
21 | CCc1csc(C2CCCN(C(=O)c3ncccn3)C2)n1 (centres undefined) | -0.847
22 | CC(=O)N1CCC2(CCCN(C(=O)c3ccccc3)C2)C1 (centres undefined) | 6.68
23 | Cc1cc(C)cc(C(=O)NCc2ncnn2C)c1 | -5.75

Row | SMILES | cytotoxicity at 70.5 h [%]
24 | CC(CNC(=O)c1c[nH]nn1)Oc1ccc(Cl)cc1 (centres undefined) | -22.2
25 | CC(=O)c1cccc(OCCCC(=O)N(C)CCC(F)(F)F)c1 | -4.24
26 | CCCc1nnc(N2CCC3(CC2)CC(=O)NC(=O)C3)o1 | 24.4
27 | Cc1cc(CN2CCN(C(C)c3nc(C4CC4)no3)CC2)no1 (centres undefined) | -4.52
28 | CNCc1n[nH]c(=O)n1CC1CCCCC1 | -5.1
29 | Cc1cc(C)nc(NCc2cc3n(n2)CCCN(C(=O)C2CCC2)C3)n1 | -1.4
30 | CN(C)C(=O)c1sc2ncccc2c1C1CNCCO1 (centres undefined) | -6.3
31 | N#Cc1ccc(C(=O)N(Cc2ccncc2)C2CC2)cc1 | -6.43
32 | Cc1ccc(C(=O)N2CC(C)(C)[C@@](C)(O)C2)cc1N1CCNC1=O | 0.84
33 | COc1cccc(CN2C[C@@H]3COC[C@]3(CNC(=O)C3CC3)C2)c1 | -9.15
34 | Cc1ncc(C(=O)NC2CCN(CCOc3ccc(Br)cc3)CC2)s1 | -4.58
35 | CCc1nnc(NC(=O)CCN2CC=C(c3cnn(C)c3)CC2)s1 | -7.5
36 | Cc1ccccc1CCC1CCCN(C(=O)Cc2cc(=O)[nH]c(N)n2)C1 (centres undefined) | 10.8
37 | Cc1cc2n(n1)CC(CNCc1ccc(Oc3ccccc3)nc1)CN2 (centres undefined) | 21.7
38 | O=C(Cn1nc(-c2ccc(F)cc2)oc1=O)NCc1ccccc1F | -5.95
39 | O=C(c1cccnc1-n1cccn1)N1CCN(CC2CC2)CC1 | -11
40 | COc1cc(C(=O)NCc2cc(N3CCOCC3)ncn2)ccn1 | 20.4
41 | COCC(=O)N1CCN(S(=O)(=O)c2cccs2)[C@H]2CS(=O)(=O)C[C@H]21 | -7.15
42 | O=C(Cc1cccc(F)c1)N1CCc2ncnc(NC3CC3)c2CC1 | 1.87
43 | CCn1cnnc1CNC(=O)N1CCN(Cc2ccsc2)CC1 | 2.69
44 | CN(C)c1nccc(C2CN(S(C)(=O)=O)C2)n1 | -1.11
45 | Cn1cnc2c1C(COCC1CCOCC1)CN(C(=O)c1ccco1)C2 (centres undefined) | -8.23
46 | Cc1cc(C)n(Cc2cc(C(=O)N3CCCC3c3ccccn3)n[nH]2)n1 (centres undefined) | -17.2

Row | SMILES | cytotoxicity at 70.5 h [%]
47 | Cc1ccccc1CN1CCCN(S(=O)(=O)N(C)C2CCCCC2)CC1 | -7.92
48 | O=C(Nc1cc(C(F)(F)F)c[nH]c1=O)N1CCOCC1 | -12.9
49 | Nc1nccnc1C(=O)N(Cc1ccco1)CC1CCCO1 (centres undefined) | -2.09
50 | O=C(c1cnc2c(cnn2C2CCCC2)c1)N1CCCSCC1 | -6.43
51 | Cc1c(CN2CCOCC2)c(O)n(CCc2ccccc2)c(=O)c1C#N | -9.75
52 | Cc1nc(CO[C@@H]2CN(Cc3cccnc3)[C@@H]3COC[C@@H]32)cs1 | -10.3
53 | CCCc1ccc2oc(C(=O)N3CCCN(C)CC3)c(C)c2c1 | -2.52
54 | Cc1cc(C)n(CC(C)NC(=O)C(C)(C)c2ccccc2F)n1 (centres undefined) | 6.99
55 | Cc1cccc(N2CCN(C(=O)CN3CCC(C(N)=O)CC3)CC2)c1 | -2.32
56 | Cc1ccc2c(c1)c(C)cc(=O)n2CCCN | -4.61
57 | Cc1nccc([C@@H]2C[C@@H]3CCN(S(C)(=O)=O)C[C@H]3O2)n1 | -10
58 | CCS(=O)(=O)N1CCN(C(C)c2ccccc2OC)CC1 (centres undefined) | -10.2
59 | Cc1nc(Nc2ccccn2)cc(N2CCN(S(C)(=O)=O)CC2)n1 | 11.2
60 | Cc1cnn(CC2CCCN2Cc2nnsc2Cl)c1 (centres undefined) | 31.9
61 | CCOCc1cncc2c1CCN(C(=O)c1cccc(C#N)c1)C2 | -1.85
62 | OC(COCc1ccco1)CN1CCc2c(ncn2C2CC2)C1 (centres undefined) | 1.85
63 | CN(c1ncnc2c1CCC2)C1CCCN(c2cccnn2)C1 (centres undefined) | 1.68
64 | COCC(=O)N1CCC(c2csc(NC(C)=O)n2)CC1 | -8.01
65 | CC(=O)NCC(=O)N1CCCC(C(=O)c2ccc(C(C)(C)C)cc2)C1 (centres undefined) | -0.592
66 | COc1cccc(CC2CN(C3CCN(C(C)=O)CC3)CCO2)c1 (centres undefined) | -5.79
67 | Cc1nn(C)c2ncc(C(=O)N3CCNC(=O)C3)cc12 | -3.66
68 | COCCCN1CCCC2(CCN(S(=O)(=O)c3cccnc3)C2)C1=O (centres undefined) | 9.1
69 | O=C(NCCCN1CCOCC1)c1ccn(COc2ccc(F)cc2)n1 | -6.88

Row | SMILES | cytotoxicity at 70.5 h [%]
70 | CC1CN(C(=O)c2sccc2Br)CCO1 (centres undefined) | -10.9
71 | O=C(C1CCCC1)N1CCN(Cc2ccncc2)[C@@H]2CS(=O)(=O)C[C@@H]21 | -5.83
72 | Cc1cc(C)cc(OCn2ccc(C(=O)O)n2)c1 | -10.3
73 | c1csc(CN2Cc3nccn3CC(Cn3cncn3)C2)c1 (centres undefined) | 2.43
74 | CC(C)CN1CCn2c(nc3cc(C(=O)NC(C)C)ccc32)C1 | -11.8
75 | O=C1CC(c2ccccc2)c2c(n3ccsc3nc2=O)N1 (centres undefined) | -20
76 | COCCn1c(=O)n(Cc2ccc(Cl)s2)c2cc(C(=O)O)ccc21 | -10.7
77 | O=C(c1ccc(O)cc1)N1C[C@@H]2OCCN(c3ncccn3)[C@@H]2C1 | -10.7
78 | Cc1ccc(NCC2(O)CCNCC2)cc1C | -1.72
79 | CN1CCN(CCO)C(=O)C12CCN(Cc1ccsc1)CC2 | -8.5
80 | O=C(Cc1ccon1)Nc1cncc(Br)c1O | -0.318
81 | O=C(NCCN1CCOCC1)c1ccnn1-c1ccc2ccccn12 | 3.81
82 | COCCN(Cc1cccs1)C(=O)c1ccc(=O)n(C)c1 | -10.2
83 | CNC(=O)C1CN(C(=O)Cc2ccc(OC)cc2)Cc2cn(C)nc21 (centres undefined) | -7.07
84 | O=C(NC1CCCC1)N1C[C@H]2CN(c3ccccn3)C[C@@]2(C(=O)O)C1 | 6.72
85 | CC(=O)N1CCC(c2nn(C)c(=O)n2-c2ccccc2)CC1 | -1.32
86 | COCCN1CCN(c2ccc(C)nn2)Cc2ccc(C)nc21 | -3.87
87 | CN(Cc1ccco1)Cc1ccccc1CNC(=O)c1csnn1 | -1.62
88 | COc1ccc(C(C)NCc2nnc(C)s2)cc1F (centres undefined) | -2.29
89 | CN(C)c1ncccc1CNS(=O)(=O)c1c(F)cccc1F | -8.75
90 | C[C@]1(O)CN(Cc2ncccc2F)CC[C@@H]1Oc1ccccc1 | -7.87
91 | Cc1nn(C)cc1-c1ccnc(N(C)Cc2ccon2)n1 | -5.47
92 | CC(=O)N1CCC2(CCN(Cc3ccccn3)C2=O)C1 (centres undefined) | 3.63

Row | SMILES | cytotoxicity at 70.5 h [%]
93 | CC(OCC(F)(F)F)C(=O)N1CCCC1 (centres undefined) | -61.3
94 | O=C([C@@H]1CCO[C@@H]2CCN(Cc3ccco3)C[C@H]21)N1CCCCO1 | -9.33
95 | CC(C)[C@H](NS(C)(=O)=O)C(=O)NCc1cc(-c2ccccc2)n[nH]1 | -10.8
96 | CC(=O)Nc1nc(CN(C)CC2CCCN2c2cccnn2)cs1 (centres undefined) | -12.7
97 | O=C(Nc1nccs1)C1CCCN1Cc1ccccn1 (centres undefined) | -5.74
98 | Cc1ccc(NC2CCN(C(=O)C(C(C)C)n3cncn3)CC2)nn1 (centres undefined) | -4.96
99 | CC1CCN(C(=O)c2occc2COc2cccc(C#N)c2)CC1 | 8.42
100 | CCCn1cc(S(=O)(=O)N[C@H]2CN(CC(N)=O)C[C@@H]2C2CC2)cn1 | -9.29
101 | Cc1cc(C)n(-c2ccc(C(=O)N3CCCC3c3cnn(C)c3)cc2)n1 (centres undefined) | -5.54
102 | O=C(CC(F)(F)F)Nc1cc(F)ccc1OCC1CCCO1 (centres undefined) | -11.3
103 | Cc1nn(C)c(C)c1-c1nccnc1CC1CCNCC1 | -1.07
104 | O=C(NCC1(c2cccs2)CCCCC1)N1CCOC(CO)C1 (centres undefined) | -1.73
105 | CC(=O)NCC(=O)N1CCn2cc(CN3CCN(C)CC3)nc2C1 | -11.5
106 | Cc1cccc(C2(CNC(=O)CCN3C(=O)CCC3=O)CCCC2)c1 | 21
107 | O=C(CC1OCCc2ccccc21)NCCn1cccc1 (centres undefined) | -4.75
108 | Fc1cccc(Cl)c1Cn1ncnc1CSCCN1CCCC1 | -6.36
109 | CSc1ccc(C2SCC(=O)Nc3c2c(=O)[nH]n3C2CCOCC2)cc1 (centres undefined) | -23.9
110 | Cc1ccc(CN2CC(C(=O)NCC3CC3)C3(CCOCC3)C2)s1 (centres undefined) | -7.98
111 | COc1ccccc1C1Cn2ccnc2CN1Cc1c[nH]nc1C (centres undefined) | -1.22
112 | COc1ncccc1C1CC(=O)NCc2nc3ccccn3c21 (centres undefined) | 1.55
113 | Cc1cn2nc(N3CCCC3Cn3cccn3)sc2n1 (centres undefined) | -4.17
114 | COc1ccccc1OCc1cc(C(=O)N2[C@H](C)CC[C@@H]2C)n[nH]1 | -6.18
